# From patent US12146004B2, “Polymyxin compounds and uses thereof” (priority 2014, dated 2024)
# Read-outs that look alike come from different tables or passages of the source.
# Experiments:
# Assay type in all cases: cell-based
# HK-2 cells = system: HK-2 cells
# Description: Values are reported relative to Polymyxin B.
# Pseudomonas aeruginosa = system: Pseudomonas aeruginosa
# Summary of the method: (§1)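 Values are minimum inhibitory concentrations in μg/mL, measured across a panel of up to nine strains of each Gram-negative pathogen, some Polymyxin-elevated or resistant.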
# Escherichia coli = system: Escherichia coli
# Summary of the method: as §1
# Acinetobacter baumannii = system: Acinetobacter baumannii
# Summary of the method: as §1
# Klebsiella pneumoniae = system: Klebsiella pneumoniae
# Summary of the method: as §1
SMILES,HK-2 IC50 (HK-2 cells) [µg/mL],MIC P. aeruginosa 068 (Pseudomonas aeruginosa) [µg/mL],MIC P. aeruginosa 070 (Pseudomonas aeruginosa) [µg/mL],MIC P. aeruginosa ATCC 27853 (Pseudomonas aeruginosa) [µg/mL],MIC P. aeruginosa CCUG 59347 (Pseudomonas aeruginosa) [µg/mL],MIC E. coli 058 (Escherichia coli) [µg/mL],MIC E. coli 061 (Escherichia coli) [µg/mL],MIC E. coli ATCC 25922 (Escherichia coli) [µg/mL],MIC A. baumanii ATCC BAA-747 (Acinetobacter baumannii) [µg/mL],MIC A. baumanii NCTC 13424 (Acinetobacter baumannii) [µg/mL],MIC K. pneumoniae 063 (Klebsiella pneumoniae) [µg/mL],MIC K. pneumoniae 065 (Klebsiella pneumoniae) [µg/mL],MIC K. pneumoniae ATCC 4352 (Klebsiella pneumoniae) [µg/mL],MIC E. coli NCTC 9001 (Escherichia coli) [µg/mL],MIC A. baumanii 053 (Acinetobacter baumannii) [µg/mL],MIC A. baumanii 056 (Acinetobacter baumannii) [µg/mL],MIC K. pneumoniae ATCC 13882 (Klebsiella pneumoniae) [µg/mL],further results
"CC(C)Cc1ccc(C[C@H]2NC(=O)[C@H](CCN)NC(=O)[C@@H](NC(=O)[C@H](CN)NC(=O)[C@@H](NC(=O)C3CNCC(CC(C)C)C3)C(C)O)CCNC(=O)[C@H]([C@@H](C)O)NC(=O)[C@H](CCN)NC(=O)[C@H](CCN)NC(=O)[C@H](CC(C)C)NC2=O)cc1 (single isomer, unassigned; isomer 2) [Example 25, (Ttrans-5-(isobutyl-piperidine)-3-carbonyl L-Thr-L-Dap-polymyxin [D-(4-isobutyl Phe)]-6]heptapeptide isomer 2]",20,1,1,1,2,1,0.5,0.5,0.5,0.5,2,1,0.25,,,,,
"CC(C)C[C@@H]1NC(=O)[C@@H](CC2CCCCC2)NC(=O)[C@H](CCN)NC(=O)[C@@H](NC(=O)[C@H](CN)NC(=O)[C@@H](NC(=O)CC(N)C2CCCCC2)C(C)O)CCNC(=O)[C@H]([C@@H](C)O)NC(=O)[C@H](CCN)NC(=O)[C@H](CCN)NC1=O (single isomer, unassigned; isomer 2) [Example 33, 3-amino-3-cyclohexylpropanoyl L-Thr-L-Dap-polymyxin [D-cyclohexylalanine]-6 heptapeptide. Isomer 2]",75,8,8,0.25,0.5,2,16,0.25,0.25,0.125,64,2,0.03,0.125,64,32,0.5,
"CC(C)C[C@@H]1NC(=O)[C@@H](CC2CCCCC2)NC(=O)[C@H](CCN)NC(=O)[C@@H](NC(=O)[C@H](CN)NC(=O)[C@@H](NC(=O)C(CN)Cc2ccccc2)C(C)O)CCNC(=O)[C@H]([C@@H](C)O)NC(=O)[C@H](CCN)NC(=O)[C@H](CCN)NC1=O (single isomer, unassigned; isomer 2) [Example 34, 3-amino-2-benzylpropanoyl L-Thr-L-Dap-polymyxin [D-cyclohexylalanine]-6 heptapeptide. Isomer 2]",99,4,4,0.25,0.25,2,16,0.25,0.125,0.06,32,4,0.125,0.125,32,16,0.125,
"CC(C)C[C@@H]1NC(=O)[C@@H](CC2CCCCC2)NC(=O)[C@H](CCN)NC(=O)[C@@H](NC(=O)[C@H](CN)NC(=O)[C@@H](NC(=O)C(CCN)Cc2ccccc2)C(C)O)CCNC(=O)[C@H]([C@@H](C)O)NC(=O)[C@H](CCN)NC(=O)[C@H](CCN)NC1=O (single isomer, unassigned; isomer 2) [Example 35, 4-amino-2-benzylbutanoyl L-Thr-L-Dap-polymyxin [D-cyclohexylalanine]-6 heptapeptide. Isomer 2]",152,1,2,0.25,0.25,4,16,0.25,0.5,0.25,16,0.5,0.125,0.06,>64,64,0.06,
"CC(C)C[C@@H]1NC(=O)[C@@H](CC2CCCCC2)NC(=O)[C@H](CCN)NC(=O)[C@@H](NC(=O)[C@H](CN)NC(=O)[C@@H](NC(=O)C(CCN)c2ccccc2)C(C)O)CCNC(=O)[C@H]([C@@H](C)O)NC(=O)[C@H](CCN)NC(=O)[C@H](CCN)NC1=O (single isomer, unassigned; isomer 2) [Example 38, 4-amino-2-phenylbutanoyl L-Thr-L-Dap-polymyxin [D-cyclohexylalanine]-6 heptapeptide. isomer 2]",255,4,4,0.25,0.25,2,16,0.06,0.06,0.03,32,1,,0.06,32,8,0.125,
"CCCCC(CCN)C(=O)N[C@H](C(=O)N[C@@H](CN)C(=O)N[C@H]1CCNC(=O)[C@H]([C@@H](C)O)NC(=O)[C@H](CCN)NC(=O)[C@H](CCN)NC(=O)[C@H](CC(C)C)NC(=O)[C@@H](CC2CCCCC2)NC(=O)[C@H](CCN)NC1=O)[C@@H](C)O (single isomer, unassigned; isomer 2) [Example 41, 2-(2-aminoethyl) hexanoyl L-Thr-L-Dap-polymyxin [D-cyclohexylalanine]-6 heptapeptide. Isomer 2]",206,4,4,0.5,0.5,4,8,0.125,0.06,0.06,16,1.5,,0.06,>32,32,0.125,cytotoxicity (HK-2 cells): significantly lower cytotoxicity compared with C6
"CC(C)C[C@@H]1NC(=O)[C@@H](CC2CCCCC2)NC(=O)[C@H](CCN)NC(=O)[C@@H](NC(=O)[C@H](CCN)NC(=O)[C@@H](NC(=O)CC(CN)Cc2ccccc2)[C@@H](C)O)CCNC(=O)[C@H]([C@@H](C)O)NC(=O)[C@H](CCN)NC(=O)[C@H](CCN)NC1=O (single isomer, unassigned; isomer 2) [Example 67, 4-amino-3-benzylbutanoyl polymyxin [D-cyclohexylalanine]-6 nonapeptide isomer 2]",,,,,,,,,,,,,,,,,,HK-2 IC50 (HK-2 cells; HK-2 cells): 60 µg/mL; MIC P. aeruginosa 068 (Pseudomonas aeruginosa; strain 068): 8 µg/mL; MIC P. aeruginosa 070 (Pseudomonas aeruginosa; strain 070): 16 µg/mL; MIC P. aeruginosa ATCC 27853 (Pseudomonas aeruginosa; strain ATCC 27853): 0.25 µg/mL; MIC P. aeruginosa CCUG 59347 (Pseudomonas aeruginosa; strain CCUG 59347): 0.25 µg/mL; MIC E. coli 058 (Escherichia coli; strain 058): 4 µg/mL; MIC E. coli 061 (Escherichia coli; strain 061): 16 µg/mL; MIC E. coli ATCC 25922 (Escherichia coli; strain ATCC 25922): 0.125 µg/mL; MIC E. coli NCTC 9001 (Escherichia coli; strain NCTC 9001): 0.06 µg/mL; MIC A. baumanii 053 (Acinetobacter baumannii; strain 053): 64 µg/mL; MIC A. baumanii 056 (Acinetobacter baumannii; strain 056): 16 µg/mL; MIC A. baumanii ATCC BAA-747 (Acinetobacter baumannii; strain ATCC BAA-747): 0.25 µg/mL; MIC A. baumanii NCTC 13424 (Acinetobacter baumannii; strain NCTC 13424): 0.25 µg/mL; MIC K. pneumoniae 063 (Klebsiella pneumoniae; strain 063): 32 µg/mL; MIC K. pneumoniae 065 (Klebsiella pneumoniae; strain 065): 1 µg/mL; MIC K. pneumoniae ATCC 13882 (Klebsiella pneumoniae; strain ATCC 13882): 0.25 µg/mL
